Reference: patent US20230322723A1, “COMPOUNDS FOR SUPPRESSING EGFR MUTANT CANCER AND PHARMACEUTICAL USE THEREOF” (J2H BIOTECH INC., priority 2020, published 2023)

What was measured:
[1] = biological target: T1, EGFR^L858R+T790M+C797S (Homo sapiens, UniProt P00533, C797S/L858R/T790M); assay: EGFR protein degradation test (Western blot) in Ba/F3 cells expressing mutant EGFR L858R+T790M+C797S (LTC); assay type: cell-based; conditions: compounds at 0.1 μM and 1 μM, 24 hours, Western blot with EGFR antibody
T1 construct: expressed in transfected cells; host or cells: Ba/F3
Description: (§1) The ability of the compounds of the present invention to degrade the mutant EGFR protein was confirmed in Ba/F3 cells expressing normal EGFR, mutant EGFR^del19+T790M+C797S or mutant EGFR^L858R+T790M+C797S. A Western blot test using the EGFR antibody was performed.
(§2) Specifically, Ba/F3 cells expressing EGFR were cultured in RPMI 1640 (Gibco, NY, USA) containing 10% fetal bovine serum (FBS, Gibco, NY, USA). Cells expressing normal EGFR, mutant EGFR^del19+T790M+C797S or mutant EGFR^L858R+T790M+C797S were treated with the compounds of the present invention at concentrations of 0.1 μM and 1 μM, respectively, for 24 hours. After that, it was washed twice with phosphate buffered saline (PBS) and SDS-PAGE was performed with 30 μg of cell lysate. After the protein separated on the gel was transferred to a nitrocellulose membrane, the expression level of the EGFR protein was confirmed using an EGFR antibody (Santa Cruz biotechnology, Santacruz, CA, USA). EGFR bands separated by Western blotting were quantitatively analyzed with Fluo-S MultiImager (Bio-Rad, Hercules, CA, USA).

[2] = system: EGFR^del19+T790M+C797S; assay: EGFR protein degradation test (Western blot) in Ba/F3 cells expressing mutant EGFR del19+T790M+C797S (DTC); assay type: cell-based; conditions: compounds at 0.1 μM and 1 μM, 24 hours, Western blot with EGFR antibody
Description: as §1, §2

T1 sequence (P00533 25-1210 T790M/C797S/L858R): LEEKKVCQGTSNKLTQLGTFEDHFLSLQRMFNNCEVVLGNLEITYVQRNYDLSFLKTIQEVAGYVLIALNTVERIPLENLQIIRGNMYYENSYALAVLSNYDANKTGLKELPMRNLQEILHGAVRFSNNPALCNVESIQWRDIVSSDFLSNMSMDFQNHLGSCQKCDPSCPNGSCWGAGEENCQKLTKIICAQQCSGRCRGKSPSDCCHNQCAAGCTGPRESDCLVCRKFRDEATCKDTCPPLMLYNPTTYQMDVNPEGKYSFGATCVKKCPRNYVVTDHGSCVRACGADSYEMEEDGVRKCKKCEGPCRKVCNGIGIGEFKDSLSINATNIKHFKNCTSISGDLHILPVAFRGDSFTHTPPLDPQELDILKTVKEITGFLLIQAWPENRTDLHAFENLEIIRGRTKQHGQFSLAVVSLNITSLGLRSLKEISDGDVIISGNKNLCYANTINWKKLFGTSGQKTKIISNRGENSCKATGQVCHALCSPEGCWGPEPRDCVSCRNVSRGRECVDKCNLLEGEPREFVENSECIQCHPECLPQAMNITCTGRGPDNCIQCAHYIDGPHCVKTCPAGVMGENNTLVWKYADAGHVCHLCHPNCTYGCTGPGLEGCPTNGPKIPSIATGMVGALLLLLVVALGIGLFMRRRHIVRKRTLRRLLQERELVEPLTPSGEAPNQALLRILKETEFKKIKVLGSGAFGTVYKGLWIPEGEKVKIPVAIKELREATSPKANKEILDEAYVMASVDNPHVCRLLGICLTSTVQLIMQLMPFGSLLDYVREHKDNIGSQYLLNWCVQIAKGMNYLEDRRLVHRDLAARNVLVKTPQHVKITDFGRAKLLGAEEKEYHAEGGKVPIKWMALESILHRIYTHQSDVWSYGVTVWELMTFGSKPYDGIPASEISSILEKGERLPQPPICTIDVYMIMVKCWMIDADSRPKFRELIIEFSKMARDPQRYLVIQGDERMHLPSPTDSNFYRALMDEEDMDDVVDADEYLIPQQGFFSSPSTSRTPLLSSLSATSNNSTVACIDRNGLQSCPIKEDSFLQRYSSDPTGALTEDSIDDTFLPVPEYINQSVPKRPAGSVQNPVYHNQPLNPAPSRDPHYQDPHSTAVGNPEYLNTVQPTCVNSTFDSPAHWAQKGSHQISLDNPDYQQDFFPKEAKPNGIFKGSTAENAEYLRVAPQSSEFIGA

SMILES | LTC (EGFR^L858R+T790M+C797S) protein degradation [1] | DTC (EGFR^del19+T790M+C797S) protein degradation [2]
COc1cc(N2CCN(CC3CCN(C(=O)CCc4ccc5c(c4)C(=O)N(C4CCC(=O)NC4=O)C5=O)CC3)CC2)ccc1Nc1ncc(Cl)c(Nc2ccccc2N(C)S(C)(=O)=O)n1 (stereo not drawn) [Compound 64, N-(2-((5-chloro-2-((4-(4-((1-(3-(2-(2,6-dioxopiperidin-3-yl)-1,3-dioxoisoindolin-5-yl)propanoyl)piperidin-4-yl)methyl)piperazin-1-yl)-2-methoxyphenyl)amino)pyrimidin-4-yl)amino)phenyl)-N-methylmethanesulfonamide] | + (Protein degradation 20~80%) | − (Protein degradation < 20%)
COc1cc(N2CCN(CCOC3CN(c4ccc5c(c4)C(=O)N(C4CCC(=O)NC4=O)C5=O)C3)CC2)ccc1Nc1ncc(Cl)c(Nc2ccccc2N(C)S(C)(=O)=O)n1 (stereo not drawn) [Compound 33, N-(2-((5-chloro-2-((4-(4-(2-((1-(2-(2,6-dioxopiperidin-3-yl)-1,3-dioxoisoindolin-5-yl)azetidin-3-yl)oxy)ethyl)piperazin-1-yl)-2-methoxyphenyl)amino)pyrimidin-4-yl)amino)phenyl)-N-methylmethanesulfonamide] | − (Protein degradation < 20%) | + (Protein degradation 20~80%)
COc1cc(N2CCC(N3CCN(CC(=O)Nc4cccc5c4C(=O)N(C4CCC(=O)NC4=O)C5=O)CC3)CC2)ccc1Nc1ncc(Cl)c(Nc2ccccc2N(C)S(C)(=O)=O)n1 (stereo not drawn) [Compound 21, 2-(4-(1-(4-((5-chloro-4-((2-(N-methylmethylsulfonamido)phenyl)amino)pyrimidin-2-yl)amino)-3-methoxyphenyl)piperidin-4-yl)piperazin-1-yl)-N-(2-(2,6-dioxopiperidin-3-yl)-1,3-dioxoisoindolin-4-yl)acetamide] | − (Protein degradation < 20%) | − (Protein degradation < 20%)
Cc1ncsc1-c1ccc(CNC(=O)[C@H]2C[C@@H](O)CN2C(=O)[C@@H](NC(=O)CCCCN2CCN(c3ccc(Nc4ncc(Cl)c(Nc5ccccc5N(C)S(C)(=O)=O)n4)cc3F)CC2)C(C)(C)C)cc1 [Compound 17, (2R,4R)-1-((S)-2-(5-(4-(4-((5-chloro-4-((2-(N-methylmethylsulfonamido)phenyl)amino)pyrimidin-2-yl)amino)-2-fluorophenyl)piperazin-1-yl)pentanamido)3,3-dimethylbutanoyl)4-hydroxy-N-(4-(4-methylthiazol-5-yl)benzyl)pyrrolidin-2-carboxamide] | − (Protein degradation < 20%) | + (Protein degradation 20~80%)
COc1cc(N2CCC(CN3CC(C(=O)N[C@H](C(=O)N4C[C@H](O)C[C@H]4C(=O)NCc4ccc(-c5scnc5C)cc4)C(C)(C)C)C3)CC2)ccc1Nc1ncc(Cl)c(Nc2ccccc2N(C)S(C)(=O)=O)n1 [Compound 38, (2S,4R)-1-((S)-2-(1-((1-(4-((5-chloro-4-((2-(N-methylmethylsulfonamido)phenyl)amino)pyrimidin-2-yl)amino)-3-methoxyphenyl)piperidin-4-yl)methyl)azetidin-3-carboxamido)-3,3-dimethylbutanoyl)-4-hydroxy-N-(4-(4-methylthiazol-5-yl)benzyl)pyrrolidin-2-carboxamide] | − (Protein degradation < 20%) | − (Protein degradation < 20%)
COc1cc(N2CCC(N3CCN(C[C@@H]4CCCN4c4ccc5c(c4)C(=O)N(C4CCC(=O)NC4=O)C5=O)CC3)CC2)ccc1Nc1ncc(Cl)c(Nc2ccccc2N(C)S(C)(=O)=O)n1 (stereo partly drawn) [Compound 44, N-(2-((5-chloro-2-((4-(4-(4-(((2S)-1-(2-(2,6-dioxopiperidin-3-yl)-1,3-dioxoisoindolin-5-yl)pyrrolidin-2-yl)methyl)piperazin-1-yl)piperidin-1-yl)-2-methoxyphenyl)amino)pyrimidin-4-yl)amino)phenyl)-N-methylmethanesulfonamide] | + (Protein degradation 20~80%) | − (Protein degradation < 20%)
COc1cc(N2CCN(CCCCC(=O)N[C@H](C(=O)N3C[C@H](O)C[C@@H]3C(=O)NCc3ccc(-c4scnc4C)cc3)C(C)(C)C)CC2)ccc1Nc1ncc(Cl)c(Nc2ccccc2N(C)S(C)(=O)=O)n1 [Compound 6, (2R,4R)-1-((S)-2-(5-(4-(4-((5-chloro-4-((2-(N-methylmethylsulfonamido)phenyl)amino)pyrimidin-2-yl)amino)-3-methoxyphenyl)piperazin-1-yl)pentanamido)3,3-dimethylbutanoyl)4-hydroxy-N-(4-(4-methylthiazol-5-yl)benzyl)pyrrolidin-2-carboxamide] | − (Protein degradation < 20%) | + (Protein degradation 20~80%)
COc1cc(N2CCC3(CCN(CCC(=O)Nc4cccc5c4C(=O)N(C4CCC(=O)NC4=O)C5=O)CC3)CC2)ccc1Nc1ncc(Cl)c(Nc2ccccc2N(C)S(C)(=O)=O)n1 (stereo not drawn) [Compound 30, 3-(9-(4-((5-chloro-4-((2-(N-methylmethylsulfonamido)phenyl)amino)pyrimidin-2-yl)amino)-3-methoxyphenyl)-3,9-diazaspiro[5,5]undecan-3-yl)-N-(2-(2,6-dioxopiperidin-3-yl)-1,3-dioxoisoindolin-4-yl)propanamide] | − (Protein degradation < 20%) | − (Protein degradation < 20%)
COc1cc(N2CCN(CCOCCNc3cccc4c3C(=O)N(C3CCC(=O)NC3=O)C4=O)CC2)ccc1Nc1ncc(Cl)c(Nc2ccccc2N(C)S(C)(=O)=O)n1 (stereo not drawn) [Compound 16] | + (Protein degradation 20~80%) | − (Protein degradation < 20%)
COc1cc(N2CCN(CC#Cc3ccc4c(c3)C(=O)N(C3CCC(=O)NC3=O)C4=O)CC2)ccc1Nc1ncc(Cl)c(Nc2ccccc2N(C)S(C)(=O)=O)n1 (stereo not drawn) [Compound 73, N-(2-((5-chloro-2-((4-(4-(3-(2-(2,6-dioxopiperidin-3-yl)-1,3-dioxoisoindolin-5-yl)prop-2-yn-1-yl)piperazin-1-yl)-2-methoxyphenyl)amino)pyrimidin-4-yl)amino)phenyl)-N-methylmethanesulfonamide] | − (Protein degradation < 20%) | − (Protein degradation < 20%)
COc1cc(N2CCN(CCCCC(=O)Nc3cccc4c3C(=O)N(C3CCC(=O)NC3=O)C4=O)CC2)ccc1Nc1ncc(Cl)c(Nc2ccccc2N(C)S(C)(=O)=O)n1 (stereo not drawn) [Compound 1, 5-(4-(4-((5-chloro-4-((2-(N-methylmethylsulfonamido)phenyl)amino)pyrimidin-2-yl)amino)-3-methoxyphenyl)piperazin-1-yl)-N-(2-(2,6-dioxopiperidin-3-yl)-1,3-dioxoisoindolin-4-yl)pentanamide] | − (Protein degradation < 20%) | − (Protein degradation < 20%)
COc1cc(N2CCC(CN3CCC(CNc4ccc5c(c4)C(=O)N(C4CCC(=O)NC4=O)C5=O)CC3)CC2)ccc1Nc1ncc(Cl)c(Nc2ccccc2N(C)S(C)(=O)=O)n1 (stereo not drawn) [Compound 63, N-(2-((5-chloro-2-((4-(4-((4-(((2-(2,6-dioxopiperidin-3-yl)-1,3-dioxoisoindolin-5-yl)amino)methyl)piperidin-1-yl)methyl)piperidin-1-yl)-2-methoxyphenyl)amino)pyrimidin-4-yl)amino)phenyl)-N-methylmethanesulfonamide] | ++ (Protein degradation > 80%) | + (Protein degradation 20~80%)
COc1cc(N2CCC(N3CCN(CCCCC(=O)Nc4cccc5c4C(=O)N(C4CCC(=O)NC4=O)C5=O)CC3)CC2)ccc1Nc1ncc(Cl)c(Nc2ccccc2N(C)S(C)(=O)=O)n1 (stereo not drawn) [Compound 2, 5-(4-(1-(4-((5-chloro-4-((2-(N-methylmethylsulfonamido)phenyl)amino)pyrimidin-2-yl)amino)-3-methoxyphenyl)piperidin-4-yl)piperazin-1-yl)-N-(2-(2,6-dioxopiperidin-3-yl)-1,3-dioxoisoindolin-4-yl)pentanamide] | − (Protein degradation < 20%) | + (Protein degradation 20~80%)
COc1cc(N2CCN(CC3CCN(c4ccc5c(c4)C(=O)N(C4CCC(=O)NC4=O)C5=O)CC3)CC2)ccc1Nc1ncc(Cl)c(Nc2ccccc2N(C)S(C)(=O)=O)n1 (stereo not drawn) [Compound 68] | ++ (Protein degradation > 80%) | + (Protein degradation 20~80%)
Cc1ncsc1-c1ccc(CNC(=O)[C@H]2C[C@@H](O)CN2C(=O)[C@@H](NC(=O)CCCCN2CCN(C3CCN(c4ccc(Nc5ncc(Cl)c(Nc6ccccc6N(C)S(C)(=O)=O)n5)cc4F)CC3)CC2)C(C)(C)C)cc1 [Compound 18, (2R,4R)-1-((S)-2-(5-(4-(1-(4-((5-chloro-4-((2-(N-methylmethylsulfonamido)phenyl)amino)pyrimidin-2-yl)amino)-2-fluorophenyl)piperidin-4-yl)piperazin-1-yl)pentanamido)-3,3-dimethylbutanoyl)-4-hydroxy-N-(4-(4-methylthiazol-5-yl)benzyl)pyrrolidin-2-carboxamide] | − (Protein degradation < 20%) | − (Protein degradation < 20%)
